According to patent US20210038537A1, “Emodin for Use in Regulating Expression of Proteins Involved in Inflammation” (UNIVERSITY OF SOUTH CAROLINA, priority 2018, published 2021):

Key:
[1] = test system: F4/80+ cells (macrophages) in MC38 colon tumors; assay: Macrophage infiltration into MC38 colon tumors by flow cytometry; format: in vivo, mouse; details: emodin 40 mg/Kg 3 times a week for 4 weeks, tumors of similar sizes
Description: (§1) To test the effects of emodin on TAMs in colorectal cancer, macrophage infiltration into MC38 colon tumors following control or emodin (40 mg/Kg) treatment (3 times a week for 4 weeks) was examined using flow cytometry. Tumors of similar sizes were selected so that emodin effects could be determined independent of any changes in tumor size.

[2] = test system: azoxymethane (AOM)/dextran sodium sulfate (DSS) mouse model of colorectal cancer; assay: AOM/DSS mouse model of colorectal cancer, tumor number; format: in vivo; details: emodin 40 mg/Kg via gavage three days a week for 10 weeks; vehicle approximately 7 tumors
Description: Effects of dietary emodin on tumorigenesis were examined in an azoxymethane (AOM)/dextran sodium sulfate (DSS) mouse model of colorectal cancer. Colorectal cancer was developed in mice according to known methods. Briefly, mice received a single injection of AOM (10 mg/Kg) followed by 2 cycles of DSS (2% in the water for 1 week followed by 2 weeks of plain water) as previously described (see, e.g., Tanaka T. Colorectal carcinogenesis: Review of human and experimental animal studies. J Carcinog 2009; 8:5; Enos R T, Velazquez K T, McClellan J L, et al. High-fat diets rich in saturated fat protect against azoxymethane/dextran sulfate sodium-induced colon cancer. American journal of physiology Gastrointestinal and liver physiology 2016; 310:G906-19).
The mice were administered either emodin or vehicle treatment (n=12) via gavage at a dose of 40 mg/Kg three days a week for the duration of the AOM/DSS protocol (10 weeks).

5FU toxicity = assay: Functional measures and survival following 5FU administration in a non-disease model; format: in vivo, C57BL/6 mice
Description: Given the positive effects of emodin on inflammation associated with 5FU toxicity, use of emodin was further examined to determine any improvement in quality of life measures with emodin/5FU treatment vs. 5FU treatment alone. The effects of emodin on functional measures and survival following 5FU administration were examined in a non-disease model.
C57BL/6 mice were assigned to either emodin (40 mg/kg 3×per week; n=9) or vehicle treatment (n=10). 5FU was administered at 40 mg/kg in cycle 1 and 20 mg/kg in cycles 2 and 3. Emodin was administered 3 times per week for the duration of the 5FU treatment.
Following the final 5FU cycle, mice underwent a mechanical stimulation test and a run to fatigue.

[3] = test system: MCP-1, TNFα, and NOS2 expression; assay: 5FU-induced colon inflammation, inflammatory gene expression by qPCR in a non-disease model; format: in vivo, C57BL/6 mice; details: 5FU 3 cycles (40 then 20 mg/Kg) plus emodin 40 mg/Kg 3 times per week; vs 5FU plus vehicle
Description: FIG. 6 illustrates the inhibition of 5FU-induced colon inflammation. 5FU treated mice were administered emodin (40 mg/kg 3×wk) or vehicle treatment (n=5). A non-disease phosphate buffer saline (PBS) group was used as a control (n=5). Following 5FU treatment inflammatory mediators were analyzed in the colon via q PCR. *p<0.05.
The effects of dietary emodin on colon inflammation following 5FU administration were examined in a non-disease model. C57BL/6 mice were assigned to either emodin or control treatment (n=5). […] 5FU or PBS was administered daily for 5-days followed by a 9-day recovery (×3 cycles). The dose of 5FU was 40 mg/Kg in cycle 1 and 20 mg/Kg in cycles 2 and 3. Emodin (40 mg/Kg) was administered 3 times per week for the duration of the 5FU treatment.
Given the role of inflammation in chemotherapy-induced toxicity, an analysis of inflammatory genes from the intestines was performed.

MC38 tumors = assay: MC38 mouse model of adenocarcinoma, tumor weight; format: in vivo; details: emodin 40 mg/Kg via gavage three days a week for 4 weeks; vehicle approximately 1,200 mg
Description: The MC38 mouse model of adenocarcinoma was used. Mice (n=4/group) were administered emodin or vehicle treatment via gavage at a dose of 40 mg/Kg three days a week for 4 weeks. Following the 4-week treatment period tumors in the vehicle treated group weighed approximately 1,200 mg, whereas those in the emodin treated group weighed approximately 400 mg.

[4] = test system: pro-tumor markers (Hif1a, IL-10, IL-6 and MCP-1); assay: Pro-tumor marker expression in MC38 tumors; format: in vivo, mouse; details: emodin 40 mg/Kg
Description: as §1, with “size. […] The effects of emodin on select pro-tumor markers (Hif1a, IL-10, IL-6 and MCP-1) in a tumor was also examined.” for “size.”

[5] = test system: Apc^min/+ model of intestinal tumorigenesis; assay: Apc^min/+ model of intestinal tumorigenesis, polyp number; format: in vivo, mouse; details: emodin 40 mg/Kg via gavage three days a week for 12 weeks; vehicle approximately 75 polyps
Description: The Apc^min/+ model of intestinal tumorigenesis was utilized to test anti-tumor effects of emodin. Mice were administered emodin or vehicle treatment (n=7/group) via gavage at a dose of 40 mg/Kg three days a week for 12 weeks. Results are illustrated in FIG. 2. As indicated, the vehicle treated group had approximately 75 polyps per mouse, whereas emodin treated mice had less than 40 polyps per mouse.

[6] = following the final 5FU cycle, emodin 40 mg/kg 3x per week

Cc1cc(O)c2c(c1)C(=O)c1cc(O)cc(O)c1C2=O [emodin, Emodin] was tested, and the “F4/80+ cells (macrophages) in colon tumors” value [1] was “significantly reduce”, the “number of tumors following the 10-week AOM/DSS protocol” value [2] was “approximately 5 tumors” and the “body weight loss associated with 5FU treatment” value (5FU toxicity; 3 cycles of 5FU plus emodin 40 mg/kg 3x per week) was “prevented the body weight loss”. The “survival of the 5FU regime” value (5FU toxicity; 3 cycles of 5FU plus emodin 40 mg/kg 3x per week, vehicle group 50%) was 100%, the “5FU induced fatigability (run to fatigue)” value (5FU toxicity; [6]) was “offset” and the “5FU induced sensitivity to pain (mechanical stimulation test)” value (5FU toxicity; [6]) was “offset”. The “MCP-1 expression in colon/intestines after 5FU” value [3] was “decrease”, the “NOS2 expression in colon/intestines after 5FU” value [3] was “decrease” and the “TNFα expression in colon/intestines after 5FU” value [3] was “decrease”. For the same molecule, the tumor weight (MC38 tumors) was “approximately 400 mg”, the “relative expression of Hif1a in tumor” value [4] was “decrease in relative marker expression” and the “relative expression of IL-6 in tumor” value [4] was “decrease in relative marker expression”. The “relative expression of IL-10 in tumor” value [4] was “decrease in relative marker expression”, the “relative expression of MCP-1 in tumor” value [4] was “decrease in relative marker expression” and the polyps per mouse [5] was “less than 40 polyps per mouse”.
